From patent publication US8871681B2, “Herbicidal compositions comprising 4-amino-3-chloro-5-fluoro-6-(4-chloro-2-fluoro-3-methoxyphenyl) pyridine-2-carboxylic acid or a derivative thereof and certain sulfonylureas” (Dow AgroSciences LLC, priority 2012, dated 2014)

Tests used:
[1] = test system: CYPRO (Cyperus rotundus, purple nutsedge); assay: In-water applied weed control, transplanted paddy rice, greenhouse (Example II); assay type: in vivo, Cyperus rotundus L.
Experimental: Weed seeds or nutlets of the desired test plant species were planted in puddled soil (mud) prepared by mixing a shredded, non-sterilized mineral soil (50.5 percent silt, 25.5 percent clay, and 24 percent sand, with a pH of about 7.6 and an organic matter content of about 2.9 percent) and water at a 1:1 volumetric ratio. The prepared mud was dispensed in 365 mL aliquots into 16-ounce (oz.) non-perforated plastic pots with a surface area of 86.59 square centimeters (cm^2) leaving a headspace of 3 centimeters (cm) in each pot. Rice seeds were planted in Sun Gro MetroMix® 306 planting mixture, which typically has a pH of 6.0 to 6.8 and an organic matter content of about 30 percent, in plastic plug trays. Seedlings at the second or third leaf stage of growth were transplanted into 860 mL of mud contained in 32-oz. non-perforated plastic pots with a surface area of 86.59 cm^2 4 days prior to herbicide application. The paddy was created by filling the headspace of the pots with 2.5 to 3 cm of water. When required to ensure good germination and healthy plants, a fungicide treatment and/or other chemical or physical treatment was applied. The plants were grown for 4-22 days in a greenhouse with an approximate 14 h photoperiod which was maintained at about 29′C during the day and 26° C. during the night. Nutrients were added as Osmocote® (19:6:12, N:P:K+minor nutrients) at 2 g per 16-oz. pot and 4 g per 32-oz. pot. Water was added on a regular basis to maintain the paddy flood, and supplemental lighting was provided with overhead metal halide 1000-Watt lamps as necessary. The plants were employed for testing when they reached the first through fourth true leaf stage.
Treatments consisted of the acid or esters of 4-amino-3-chloro-5-fluoro-6-(4-chloro-2-fluoro-3-methoxy-phenyl)pyridine-2-carboxylic acid (compound A) each formulated as an SC and various herbicidal components alone and in combination. Forms of compound A were applied on an acid equivalent basis.
Other herbicidal components were applied on an active ingredient basis and included acetolactate synthase (ALS)-inhibiting herbicides (sulfonylurea chemical class), azimsulfuron formulated as Gulliver®, bensulfuron-methyl formulated as Londax® 60DF, cyclosulfamuron (technical grade materail), ethoxysulfuron formulated as Sunrice® 15 WDG, flucetosulfuron formulated as Sukedachi® 1KG G, imazosulfuron formulated as Brazzos®, metsulfuron-methyl formulated as Lorate®, nicosulfuron formulated as Accent®, orthosulfamuron formulated as Strada® WG, propyrisulfuron formulated as Zeta One®, and rimsulfuron formulated as Matrix® WG.
Treatment requirements for each compound or herbicidal component were calculated based upon the rates being tested, the concentration of active ingredient or acid equivalent in the formulation, an application volume of 2 mL per component per pot, and an application area of 86.59 cm^2 per pot.
For formulated compounds, a measured amount was placed in an individual 100 or 200 mL glass vial and was dissolved in a volume of 1.25% (v/v) Agri-Dex® crop oil concentrate to obtain application solutions.
For technical grade compounds, a weighed amount was placed in an individual 100 to 200 mL glass vial and was dissolved in a volume of acetone to obtain concentrated stock solutions. […] The concentrated stock solutions obtained were diluted with an equivalent volume of an aqueous mixture containing 2.5% (v/v) crop oil concentrate so that the final application solutions contained 1.25% (v/v) crop oil concentrate.
Applications were made by injecting with a pipetter appropriate amounts of the application solutions, individually and sequentially, into the aqueous layer of the paddy. Control plants were treated in the same manner with the solvent blank. Applications were made so that all treated plant material received the same concentrations of acetone and crop oil concentrate. […]

[2] = test system: CIRAR (Cirsium arvense, Canada thistle); assay: Post-emergence foliar-applied weed control in cereal crops, greenhouse (Example III); assay type: in vivo, Cirsium arvense (L.) Scop.
In short: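 Greenhouse plants at the second or third true leaf stage (14 hour photoperiod, about 18/17 °C) were track-sprayed at 187 L/ha with Compound A SC, a second cereal herbicide, or their combinations, using 1.25% v/v crop oil concentrate. Injury was scored visually at 20-22 days against solvent-blank controls on a 0–100% scale. Expected mixture effects were calculated with Colby's equation.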

COc1c(Cl)ccc(-c2nc(C(=O)O)c(Cl)c(N)c2F)c1F [Compound A Acid, 4-amino-3-chloro-5-fluoro-6-(4-chloro-2-fluoro-3-methoxy-phenyl)pyridine-2-carboxylic acid] was tested, and the “Visual Weed Control (%) - 20 DAA CYPRO Obs” value (“Visual Weed Control (%)” for short) ([1]; Table 43, 10.6 gae/ha alone) was 10%, the “Visual Weed Control (%)” value ([1]; Table 43, 21.2 gae/ha alone) was 20% and the “Visual Weed Control (%)” value ([1]; Table 49, 10.6 gae/ha alone) was 10%. For the same molecule, the “Visual Weed Control (%)” value ([1]; Table 49, 21.2 gae/ha alone) was 20% and the “Visual Weed Control (%)” value ([1]; Table 49, 42.4 gae/ha alone) was 95%.

For COc1c(Cl)ccc(-c2nc(C(=O)OCc3ccccc3)c(Cl)c(N)c2F)c1F [Compound A Benzyl Ester], the “Visual Weed Control (%)” value ([1]; Table 50, 4.38 gae/ha alone) was 50%, the “Visual Weed Control (%)” value ([1]; Table 50, 8.75 gae/ha alone) was 0% and the “Visual Weed Control (%)” value ([1]; Table 50, 17.5 gae/ha alone) was 90%. The pest or weed control at 8.75 g/ha ([2]; Cirsium arvense, post-emergence, read-out: Weed Control CIRAR Obs) was 40%, the “Weed Control CIRAR Obs” value ([2]; Table 53, foliar-applied, after 20-22 days, 8.75 gai/ha alone) was 40% and the “Weed Control CIRAR Obs” value ([2]; Table 54, foliar-applied, after 20-22 days, 8.75 gai/ha alone) was 40%. The “Weed Control CIRAR Obs” value ([2]; Table 55, foliar-applied, after 20-22 days, 8.75 gai/ha alone) was 40%, the “Weed Control CIRAR Obs” value ([2]; Table 56, foliar-applied, after 20-22 days, 8.75 gai/ha alone) was 40% and the “Weed Control CIRAR Obs” value ([2]; Table 57, foliar-applied, after 20-22 days, 8.75 gai/ha Compound A Benzyl Ester alone) was 40%. For the same molecule, the “Weed Control CIRAR Obs” value ([2]; Table 58 (cereal), foliar-applied, after 20-22 days, 8.75 gai/ha alone) was 40% and the “Weed Control CIRAR Obs” value ([2]; Table 59 (cereal), foliar-applied, after 20-22 days, 8.75 gai/ha alone) was 40%.

COC(=O)c1ccccc1S(=O)(=O)NC(=O)Nc1nc(C)nc(OC)n1 [Metsulfuron-methyl, methyl 2-[[[[(4-methoxy-6-methyl-1,3,5-triazin-2-yl)amino]carbonyl]amino]sulfonyl]benzoate, reference compound] showed a pest or weed control at 1.1 g/ha ([2]; Cirsium arvense, post-emergence, Table 56, foliar-applied, after 20-22 days, 1.1 gai/ha alone, read-out: Weed Control CIRAR Obs) of 65%.
